Entries after “also recorded” stand apart in the source; their conditions may differ.

Experiment [1] deals with PC12 cells. The experiment can be described thus: Synergistic activity assay (PC12 differentiation in combination with NGF). Format: cell-based. Conditions: 100 ng/ml in combination with NGF 100 ng/ml. How it is done:
To evaluate if the small molecules G79, G80, and G81 interfere with the maximal activity of NGF or lead to additive effects, PC12 cells were plated into collagen-coated 24-wells plates with 2.5% FBS and treated after 72 h with the small chemicals (each one at 100 ng/ml) in combination with NGF at the concentration of 100 ng/ml. In the same experiment PC12 cells were treated with the small molecules or NGF alone, as controls. The number of differentiated cells was evaluated after three days of treatment. The cell count was done in three randomly selected fields with 100 cells.

In the next experiment the test system is NSC-34 cells. Briefly: In vitro model of ALS, serum deprivation of motoneuron-like cells (MTT). Conditions: for neuroprotection on motorneurons challenged with serum deprivation (in words): 20 ng/ml to 50 μg/ml. In kind it is cell-based, mouse. How it is done:
Mouse motoneuron-like cells NCS-34 were cultured in DMEM (Gibco) supplemented with 10% heat inactivated FBS and 1% penicillin/streptomycin. The cell culture was maintained in a humidified atmosphere of 95% air and CO2 at 37° C.
The nutritional deprivation stress in motorneurons was conducted as described previously in Masahito T. et al., J. Neuropathol. Exp. Neurol. 65(8):816-825 (2006). To assess the effect of trophic stress condition on ALS, the presence of apoptosis was investigated using serum deprivation. NSC-34 cells were seeded in 24-well poly-lysinated plates at 30,000 cells/well and preincubated for 24 h in DMEM plus 10% FBS with various doses of G79, G80, and G81 (20 ng/ml, 100 ng/ml, 2 μg/ml, 20 μg/ml, 50 μg/ml), and G-CSF (2 μg/ml) or BDNF (20 ng/ml) which both were used as positive controls (Masahito T. et al., ibid; Elliot J. L., Neurobiology of Disease 6:310-320 (1999)). Then, the medium was removed and replaced with fresh DMEM without FBS. After 48 h, cell viability was assayed by MTT assay, as described previously.

Experiment [2] has as its system PC12 cells. The experiment can be described thus: Dose response differentiation assay in PC12 cell line. Format: cell-based. To be noted: for number of differentiated cells in a field of 100 cells: after 3 days of treatment; for number of differentiated cells above the best working concentration: G79 at 50 μg/ml, G81 at concentrations higher than 100 ng/ml; for differentiation of PC12 cells (in words): compared to control PC12 untreated cells; for best working concentration for PC12 differentiation: tested 2-20-100 ng/ml and 2-20-50 μg/ml. How it is done: Stock of PC12 cultures were maintained in Ham's F12 medium supplemented with 2.5% fetal bovine serum (FBS), 15% of horse serum (HS) and 1% penicillin/streptomycin. The cell culture was maintained in 5% CO2 at 37° C.
PC12 cell differentiation was assessed by treating the cells with all the test compounds (G79, G80, and G81) at different testing concentration (2-20-100 ng/ml and 2-20-50 μg/ml). The cells were first plated into collagen-coated 24-wells plates with 2.5% FBS in the medium to be de-differentiated. After 72 hrs, the test compounds were added and NGF (Sigma Aldrich; 100 ng/ml) as positive control of differentiation. The number of differentiated cells, with neurite processes greater than two cell bodies in length, is counted after 3 days of treatment. The cell count is done in three randomly selected fields with 100 cells.

Experiment [3] has as its system PC12 cells. The experiment can be described thus: Receptor activation assay (PC12 differentiation with anti-TrkA antibody). In kind it is cell-based. How it is done:
The hypothesis that G79, G80, and G81 can act through the binding to the extracellular portion of TrkA (binding site) and activate the tyrosine kinase receptor was tested by treating the PC12 cells with the small chemicals in combination with the antibody anti-TrkA or the K252a, a tyrosine kinase inhibitor. For this purpose PC12 cells were plated into collagen-coated 24-wells plates with 2.5% FBS and after 72 hrs were incubated with the small molecules alone or in combination with anti-TrkA antibody (AbCam, 1:2000) or K252a. NGF (100 ng/ml) was used as control and added alone or in combination with anti-TrkA antibody or K252a. The number of differentiated cells was evaluated after three days of treatment. The cell count was done in three randomly selected fields with 100 cells.

For the next experiment, the system named is SH-SY5Y cells. Briefly: cells. Format: cell-based, human. To be noted: for protective effect against H2O2 oxidative stress (in words): H2O2 100 μM, 20 ng/ml to 50 μg/ml. How it is done:
The cells were pre-treated for 3 hours with the test compounds at different concentrations (20 ng/ml, 100 ng/ml, 2 μg/ml, 20 μg/ml and 50 μg/ml) or BDNF (20 ng/ml) as a positive control. Then H2O2 (100 μM) was added and incubated for 24 hrs. The number of surviving cells was determined by MTT assay. […] In FIG. 5B, BDNF cell viability has been considered as the 100%. The H2O2 stress induced a decrease in the percentage of cell viability (no stress Ctr vs H2O2 stress=100±2% vs 95.9±0.5%). G79, compared to G80 and G81, is the one that exerted better protection, at the concentration of 20 ng/ml (BDNF vs G79=100±2.6 vs 107.4±5.8).

The subject of experiment [4] is PC12 cells. The experiment can be described thus: Secretagogue activity assay (PC12 differentiation with antibody anti-NGF). In kind it is cell-based. How it is done:
To assess if the tested compounds, G79, G80, and G81, act as secretagogues, inducing neurotrophic activity through the synthesis of NGF, PC12 cells were plated into collagen-coated 24-wells plates with only 2.5% FBS and after 72 hrs the cells were treated with the tested compounds (each one at 100 ng/ml) together with antibody anti-NGF (1 μg/ml, AbCam). After three days of treatment, the differentiation was evaluated. The cell count was done in three randomly selected fields with 100 cells.

The subject of experiment [5] is PC12 cells. Briefly: Signalling inhibition assays (PC12 differentiation with LY294002 or PD98059). Format: cell-based. How it is done:
To evaluate if the transduction pathway induced by G79, G80, and G81 involves AKT and ERK activation, PC12 cell were treated with the test compounds in the presence of LY294002, an inhibitor of PI3K (an upstream activator of AKT) and PD98059, an inhibitor of MAPK kinase (an upstream activator of ERK). For this purpose, PC12 cells were plated into collagen-coated 24-wells plates with 2.5% FBS and after 72 hrs the cells were treated with the small molecules in combination with LY294002 (Sigma Aldrich, 10 μM) or PD98059 (Sigma Aldrich, 50 μM). NGF (100 ng/ml) was used as control and added alone or in combination with the inhibitors.

Setting [6] is: in combination with anti-TrkA antibody (1:2000).
Where [7] appears, read: 100 ng/ml together with antibody anti-NGF (1 μg/ml).
Where [8] appears, read: plus LY294002 (10 μM), inhibitor of PI3K.
[9] abbreviates: plus PD98059 (50 μM), inhibitor of MAPK kinase.

For the compound `CC(C)CN(CC(=O)N(CCCN1CCCC1=O)CC(N)=O)C(=O)CNCCc1ccccc1F` [Compound G79, [N-(2-(2′-Fluorophenyl)ethyl)glycyl]-[N-(2-methylpropyl)glycyl]-N-[3-(2′-oxopyrrolidinyl)propyl]glycinamide], the “number of differentiated cells” value in the experiment with PC12 cells [1] is 11.3±2.6; in the experiment on PC12 cells [3] (setting [6]) it was 19.6±8.1; in the experiment on PC12 cells [3] (treatment alone), 11.5±2.8; with PC12 cells [5] (setting [8]), 5.28±2.54; with PC12 cells [5] (setting [9]), 3.1±1.06; in the experiment on PC12 cells [5] (treatment alone) it was 11.5±2.8. In the experiment with NSC-34 cells, the “neuroprotection on motorneurons challenged with serum deprivation (in words)” value (from here on “neuroprotection”) was “exerted neuroprotection”. Further, in the experiment on NSC-34 cells (Mus musculus, NSC-34, 100 ng/ml, serum deprivation 48 h, read-out: cell viability, percentage relative to the control without stress), the viability at 0.1 µg/mL was 98.1 ± 6.14%. The “concentration of the best neuroprotective effect” value in the experiment with NSC-34 cells (serum deprivation) worked out at 100 ng/mL. In the experiment with PC12 cells [2] (20 μg/ml), the “number of differentiated cells in a field of 100 cells” value is 11.3±2.68 cells. The “number of differentiated cells above the best working concentration” value in the experiment with PC12 cells [2] is on record as “decreases”. The “differentiation of PC12 cells (in words)” value with PC12 cells [2] is “induce the differentiation of PC12 cells”. Besides, the “best working concentration for PC12 differentiation” value in the experiment with PC12 cells [2] was 20000 ng/mL. In the experiment with SH-SY5Y cells, the “protective effect against H2O2 oxidative stress (in words)” value (from here on “protective effect … (in words)”) is on record as “protective effect”. The viability at 0.02 µg/mL with SH-SY5Y cells (Homo sapiens, SH-SY5Y, 24 h, read-out: cell viability, BDNF cell viability considered as the 100%) is 107 ± 5.8%. Also, the “number of differentiated cells for each field” value in the experiment with PC12 cells [4] (setting [7]) was 18.8±4.9; in the experiment with PC12 cells [4] (100 ng/ml, treatment alone) it was 11.5±2.8.
As for `CC(C)CN(CC(=O)N(CCc1ccc(S(N)(=O)=O)cc1)CC(N)=O)C(=O)CNCCc1ccccc1F` [Compound G80, [N-(2-(2′-Fluorophenyl)ethyl)glycyl]-[N-(2-methylpropyl)glycyl]-N-[2-(4′-sulfamoylphenyl)ethyl]glycinamide], the “number of differentiated cells” value in the experiment on PC12 cells [1] is on record as 13±5.9; in the experiment with PC12 cells [3] (setting [6]), 14.6±4.1; in the experiment on PC12 cells [3] (treatment alone) it was 15.1±6.3; in the experiment on PC12 cells [5] (setting [8]) it was 8.5±2.6; in the experiment on PC12 cells [5] (setting [9]) it was 4±2.3; in the experiment with PC12 cells [5] (treatment alone), 15.1±6.3. Besides, the “neuroprotection” value in the experiment on NSC-34 cells was “exerted neuroprotection”. In addition, the “differentiation of PC12 cells (in words)” value in the experiment on PC12 cells [2] was “induce the differentiation of PC12 cells; also recorded: good differentiation with very long neurites”. The “best working concentration for PC12 differentiation” value in the experiment on PC12 cells [2] was 20 ng/mL. Also, in the experiment on SH-SY5Y cells, the “protective effect … (in words)” value is on record as “protective effect”. The “number of differentiated cells for each field” value with PC12 cells [4] (setting [7]) was 14.1±1.8; in the experiment on PC12 cells [4] (100 ng/ml, treatment alone) it was 15.1±6.3.
Turning to `CC(C)CN(CC(=O)N(CCc1ccc(S(N)(=O)=O)cc1)CC(N)=O)C(=O)CNCCN1CCCC1` [Compound G81, [N-(2-(1-Pyrrolidinyl)ethyl)glycyl]-[N-(2-methylpropyl)glycyl]-N-[2-(4′-sulfamoylphenyl)ethyl]glycinamide], the “number of differentiated cells” value amounted to 13.3±3.8 with PC12 cells [1]; 16.5±5.9 in the experiment on PC12 cells [3] (setting [6]); 14.1±3.3 in the experiment on PC12 cells [3] (treatment alone); 6.6±4.02 with PC12 cells [5] (setting [8]); 1.6±1.1 in the experiment with PC12 cells [5] (setting [9]); 14.1±3.3 in the experiment with PC12 cells [5] (treatment alone). In addition, the “neuroprotection” value in the experiment on NSC-34 cells is given as “exerted neuroprotection”. Further, the “number of differentiated cells in a field of 100 cells” value with PC12 cells [2] (100 ng/ml) is 9.2±3.9 cells. Besides, in the experiment on PC12 cells [2], the “number of differentiated cells above the best working concentration” value is recorded as “decreases”. In the experiment on PC12 cells [2], the “differentiation of PC12 cells (in words)” value is “induce the differentiation of PC12 cells; also recorded: significant differentiation”. For the same compound, the “best working concentration for PC12 differentiation” value with PC12 cells [2] turned out to be 100 ng/mL. Further, in the experiment with SH-SY5Y cells, the “protective effect … (in words)” value is reported as “protective effect”. Also, the “number of differentiated cells for each field” value stood at 15.5±4.1 with PC12 cells [4] (setting [7]) and 14.1±3.3 in the experiment with PC12 cells [4] (100 ng/ml, treatment alone).

For the origin of these results see patent publication US10106577B2, “Agonists of neurotrophin receptors and their use as medicaments” (BIONURE FARMA, S.L., priority 2010, dated 2018).
